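Each compound was tested at five concentrations against cells in 96-well plates for 48 hours. Abbreviation: GI50, concentration required for 50% inhibition of growth.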 Activity calls are given as the source filed them. Rule as the data show it: active = GI50 up to about 1.1 µM and inactive = higher.
Key:
Experiment in all cases: NCI tumour cell line growth inhibition, 48 h
786-0 = tested on: 786-0
A498 = tested on: A498
A549 = tested on: A549
ACHN = tested on: ACHN
BT-549 = tested on: BT-549
CAKI-1 = tested on: CAKI-1
CCRF-CEM = tested on: CCRF-CEM
COLO 205 = tested on: COLO 205
DU-145 = tested on: DU-145
EKVX = tested on: EKVX
HCC 2998 = tested on: HCC 2998
HCT-116 = tested on: HCT-116
HCT-15 = tested on: HCT-15
HL-60 = tested on: HL-60
HOP-62 = tested on: HOP-62
HOP-92 = tested on: HOP-92
HT-29 = tested on: HT-29
Hs-578T = tested on: Hs-578T
IGROV-1 = tested on: IGROV-1
K562 = tested on: K562
KM12 = tested on: KM12
LOX IMVI = tested on: LOX IMVI
M14 = tested on: M14
MCF7 = tested on: MCF7
MDA-MB-231 = tested on: MDA-MB-231
MDA-MB-435 = tested on: MDA-MB-435
MDA-N = tested on: MDA-N
MOLT-4 = tested on: MOLT-4
Malme-3M = tested on: Malme-3M
NCI-H226 = tested on: NCI-H226
NCI-H23 = tested on: NCI-H23
NCI-H460 = tested on: NCI-H460
NCI-H522 = tested on: NCI-H522
NCI/ADR-RES = tested on: NCI/ADR-RES
OVCAR-3 = tested on: OVCAR-3
OVCAR-4 = tested on: OVCAR-4
OVCAR-5 = tested on: OVCAR-5
OVCAR-8 = tested on: OVCAR-8
PC-3 = tested on: PC-3
RPMI-8226 = tested on: RPMI-8226
RXF 393 = tested on: RXF 393
SF-268 = tested on: SF-268
SF-295 = tested on: SF-295
SF-539 = tested on: SF-539
SK-MEL-28 = tested on: SK-MEL-28
SK-MEL-2 = tested on: SK-MEL-2
SK-MEL-5 = tested on: SK-MEL-5
SK-OV-3 = tested on: SK-OV-3
SN12C = tested on: SN12C
SNB-19 = tested on: SNB-19
SNB-75 = tested on: SNB-75
SR = tested on: SR
SW-620 = tested on: SW-620
T47D = tested on: T47D
TK-10 = tested on: TK-10
U-251 = tested on: U-251
UACC-257 = tested on: UACC-257
UACC-62 = tested on: UACC-62
UO-31 = tested on: UO-31

## C[C@@H]1CC[C@@]2(NC1)O[C@H]1C[C@H]3[C@@H]4CC[C@H]5C[C@@H](O)CC[C@]5(C)[C@H]4CC[C@]3(C)[C@H]1[C@@H]2C
786-0
  GI50: 31.6 µM (inactive)
A498
  GI50: 68.7 µM (inactive)
A549
  GI50: > 100 µM (inactive)
ACHN
  GI50: 33.6 µM (inactive)
BT-549
  GI50: > 100 µM (inactive)
CAKI-1
  GI50: > 100 µM (inactive)
CCRF-CEM
  GI50: > 100 µM (inactive)
COLO 205
  GI50: 57.1 µM (inactive)
DU-145
  GI50: > 100 µM (inactive)
EKVX
  GI50: > 100 µM (inactive)
HCC 2998
  GI50: 37.2 µM (inactive)
HCT-116
  GI50: 45.5 µM (inactive)
HCT-15
  GI50: 36.9 µM
HL-60
  GI50: 21.6 µM (inactive)
HOP-62
  GI50: 64.4 µM (inactive)
HOP-92
  GI50: 93.5 µM (inactive)
HT-29
  GI50: 57.4 µM (inactive)
Hs-578T
  GI50: 46 µM (inactive)
IGROV-1
  GI50: 90.2 µM (inactive)
K562
  GI50: 63.1 µM (inactive)
KM12
  GI50: 27.3 µM (inactive)
LOX IMVI
  GI50: 32.7 µM (inactive)
M14
  GI50: 65.2 µM (inactive)
MCF7
  GI50: 51.5 µM (inactive)
MDA-MB-231
  GI50: 38.1 µM (inactive)
MDA-MB-435
  GI50: > 100 µM (inactive)
MDA-N
  GI50: 36 µM (inactive)
MOLT-4
  GI50: > 100 µM (inactive)
Malme-3M
  GI50: > 100 µM (inactive)
NCI-H226
  GI50: > 100 µM (inactive)
NCI-H23
  GI50: 77.3 µM (inactive)
NCI-H460
  GI50: 54.3 µM (inactive)
NCI-H522
  GI50: > 100 µM (inactive)
NCI/ADR-RES
  GI50: 30.8 µM (inactive)
OVCAR-3
  GI50: 61.7 µM (inactive)
OVCAR-4
  GI50: 26.8 µM (inactive)
OVCAR-5
  GI50: > 100 µM (inactive)
OVCAR-8
  GI50: 21.5 µM (inactive)
PC-3
  GI50: 82.4 µM (inactive)
RPMI-8226
  GI50: 31.2 µM (inactive)
RXF 393
  GI50: > 100 µM (inactive)
SF-268
  GI50: > 100 µM (inactive)
SF-295
  GI50: 35.5 µM (inactive)
SF-539
  GI50: 25.3 µM (inactive)
SK-MEL-28
  GI50: > 100 µM (inactive)
SK-MEL-2
  GI50: > 100 µM (inactive)
SK-MEL-5
  GI50: 42.1 µM (inactive)
SK-OV-3
  GI50: 27.4 µM (inactive)
SN12C
  GI50: 55.5 µM (inactive)
SNB-19
  GI50: 30.6 µM (inactive)
SNB-75
  GI50: 61.9 µM (inactive)
SR
  GI50: 35.5 µM (inactive)
SW-620
  GI50: 88.9 µM (inactive)
T47D
  GI50: > 100 µM (inactive)
TK-10
  GI50: 35.3 µM (inactive)
U-251
  GI50: 61.2 µM (inactive)
UACC-257
  GI50: > 100 µM (inactive)
UACC-62
  GI50: 57.3 µM (inactive)
UO-31
  GI50: 42.3 µM (inactive)

## C/C(=C\c1csc(C)n1)[C@@H]1C[C@@H]2O[C@@H]2CCC[C@H](C)[C@H](O)[C@@H](C)C(=O)C(C)(C)[C@@H](O)CC(=O)O1.C/C(=C\c1csc(C)n1)[C@@H]1C[C@@H]2O[C@]2(C)CCC[C@H](C)[C@H](O)[C@@H](C)C(=O)C(C)(C)[C@@H](O)CC(=O)O1
786-0
  GI50: 0.005 µM (active)
A498
  GI50: 0.0105 µM (active)
A549
  GI50: 0.0039 µM (active)
ACHN
  GI50: 0.0179 µM (active)
BT-549
  GI50: 0.0569 µM (active)
CAKI-1
  GI50: 0.0101 µM (active)
CCRF-CEM
  GI50: 0.0478 µM (active)
COLO 205
  GI50: 0.00299 µM (active)
DU-145
  GI50: 0.00604 µM (active)
EKVX
  GI50: 0.0252 µM (active)
HCC 2998
  GI50: 0.00403 µM (active)
HCT-116
  GI50: 0.00173 µM (active)
HCT-15
  GI50: 0.00218 µM
HL-60
  GI50: 0.00475 µM (active)
HOP-62
  GI50: 0.0258 µM (active)
HOP-92
  GI50: 0.0698 µM (active)
HT-29
  GI50: 0.00107 µM (active)
Hs-578T
  GI50: 0.00378 µM (active)
IGROV-1
  GI50: 0.00241 µM (active)
K562
  GI50: 0.00787 µM (active)
KM12
  GI50: 0.00265 µM (active)
LOX IMVI
  GI50: 0.00272 µM (active)
M14
  GI50: 0.00266 µM (active)
MCF7
  GI50: 0.00293 µM (active)
MDA-MB-231
  GI50: 0.00893 µM (active)
MDA-MB-435
  GI50: 0.000973 µM (active)
MDA-N
  GI50: 0.000326 µM (active)
MOLT-4
  GI50: 0.00738 µM (active)
Malme-3M
  GI50: 0.129 µM (active)
NCI-H226
  GI50: 0.0455 µM (active)
NCI-H23
  GI50: 0.00664 µM (active)
NCI-H460
  GI50: 0.00129 µM (active)
NCI-H522
  GI50: 0.00076 µM (active)
NCI/ADR-RES
  GI50: 0.0191 µM (active)
OVCAR-3
  GI50: 0.00333 µM (active)
OVCAR-4
  GI50: 1 µM (active)
OVCAR-5
  GI50: 0.108 µM (active)
OVCAR-8
  GI50: 0.0048 µM (active)
PC-3
  GI50: 0.00469 µM (active)
RPMI-8226
  GI50: 0.00995 µM (active)
RXF 393
  GI50: 0.00266 µM (active)
SF-268
  GI50: 0.0122 µM (active)
SF-295
  GI50: 0.00567 µM (active)
SF-539
  GI50: 0.00511 µM (active)
SK-MEL-28
  GI50: 0.00475 µM (active)
SK-MEL-2
  GI50: 0.0246 µM (active)
SK-MEL-5
  GI50: 0.00408 µM (active)
SK-OV-3
  GI50: 0.00971 µM (active)
SN12C
  GI50: 0.00562 µM (active)
SNB-19
  GI50: 0.0191 µM (active)
SNB-75
  GI50: 0.00384 µM (active)
SR
  GI50: 0.00397 µM (active)
SW-620
  GI50: 0.00255 µM (active)
T47D
  GI50: 0.0366 µM (active)
TK-10
  GI50: 0.0439 µM (active)
U-251
  GI50: 0.0055 µM (active)
UACC-257
  GI50: 0.145 µM (active)
UACC-62
  GI50: 0.00767 µM (active)
UO-31
  GI50: 0.0297 µM (active)

Source: ChEMBL document CHEMBL1201862, “PubChem BioAssay data set” (2004)
